Experimental data reported in patent US20220159955A1, “METHOD OF IMPROVING PLANT GROWTH” (UPL LTD, priority 2020, published 2022).
Entries after “also recorded” stand apart in the source; their conditions may differ.

Tests used:
Assay type in all cases: in vivo
rice (DSR) [1] = test: Seed treatment in rice (DSR): plant height, PGE rating, tillers (Example 4)
Thrips [2] = test: Efficacy of seed treatment on thrips in direct sown rice (Example 4)
rice (DSR) [3] = test: Seed treatment in rice (DSR): rice grain yield (Example 4)
corn seeds [4] = test: Plant vigour visual rating of corn from treated seeds (Example 3); design: Average Plant Vigor visual rating: scale not given here
Procedure: In this experiment the effect was tested on corn seeds. Treated and untreated seeds were sown to see the impact of flonicamid on the plant vigour. A line sowing method was used to sow the seeds.

corn seeds [5] = test: Germination of flonicamid-treated corn seeds, line sowing (Example 2); conditions: for Average germination %: corn seed
Procedure: In this experiment the effect of flonicamid was tested on corn seeds. Treated and untreated seeds were sown to see the impact of flonicamid on the plant germination. Treatments are performed using FS formulation of example 1. A line sowing method was used to sow the seeds.

transplanted rice [6] = test: Seed treatment in transplanted rice: germination and crop safety (Example 5)
Thrips [7] = test: Efficacy of seed treatment on thrips in transplanted rice (Example 5)
transplanted rice [8] = test: Seed treatment in transplanted rice: plant height, PGE rating, tillers (Example 5)
corn seeds [9] = test: Phytotoxicity after seed treatment, corn; conditions: treatment of seeds
rice (DSR) [10] = test: Seed treatment in rice (DSR): germination and crop safety (Example 4)

N#CCNC(=O)c1cnccc1C(F)(F)F [Flonicamid, N-cyanomethyl-4-trifluoromethylnicotinamide]
PGE rating (rice (DSR) [1]; 5 ml/kg Seed, 15 DAS): 2 | Plant hight (cm) (rice (DSR) [1]; 5 ml/kg Seed, 15 DAS): 12.83 cm | Plant hight (cm) (rice (DSR) [1]; 5 ml/kg Seed, 20 DAS): 22.45 cm | PGE rating (rice (DSR) [1]; 5 ml/kg Seed, 30 DAS): 2 | No. of tiller/hill (rice (DSR) [1]; 5 ml/kg Seed, 45 DAS): 13.5 tiller/hill | PGE rating (rice (DSR) [1]; 5 ml/kg Seed, 45 DAS): 3 | No. of tiller/hill (rice (DSR) [1]; 5 ml/kg Seed, 60 DAS): 15.3 tiller/hill | PGE rating (rice (DSR) [1]; 10 ml/kg Seed, 15 DAS): 1 | Plant hight (cm) (rice (DSR) [1]; 10 ml/kg Seed, 15 DAS): 15.33 cm | Plant hight (cm) (rice (DSR) [1]; 10 ml/kg Seed, 20 DAS): 26.66 cm | PGE rating (rice (DSR) [1]; 10 ml/kg Seed, 30 DAS): 1 | No. of tiller/hill (rice (DSR) [1]; 10 ml/kg Seed, 45 DAS): 17.2 tiller/hill | PGE rating (rice (DSR) [1]; 10 ml/kg Seed, 45 DAS): 2 | No. of tiller/hill (rice (DSR) [1]; 10 ml/kg Seed, 60 DAS): 19.7 tiller/hill | crop vigour parameter (in words) (rice (DSR) [1]; seed treatment vs untreated): improvement in crop vigour parameter | No. of Thrips/Seedling (Thrips [2]; 5 ml/kg Seed, 15DAS): 4.5 Thrips/Seedling | No. of Thrips/Seedling (Thrips [2]; 5 ml/kg Seed, 20DAS): 8.3 Thrips/Seedling | No. of Thrips/Seedling (Thrips [2]; 5 ml/kg Seed, 25DAS): 12.3 Thrips/Seedling | No. of Thrips/Seedling (Thrips [2]; 10 ml/kg Seed, 15DAS): 1.3 Thrips/Seedling | No. of Thrips/Seedling (Thrips [2]; 10 ml/kg Seed, 20DAS): 4.8 Thrips/Seedling | No. of Thrips/Seedling (Thrips [2]; 10 ml/kg Seed, 25DAS): 7.2 Thrips/Seedling | control of thrips (in words) (Thrips [2]; seed treatment vs untreated): better control of thrips | Rice grain yield t/ha (rice (DSR) [3]; 5 ml/kg Seed): 4.53 t/ha | Rice grain yield t/ha (rice (DSR) [3]; 10 ml/kg Seed): 4.85 t/ha | Average Plant Vigor visual rating (corn seeds [4]; 5 g/ml/kg Seed, 10DAS): 2 | Average Plant Vigor visual rating (corn seeds [4]; 5 g/ml/kg Seed, 20DAS): 1 | Average Plant Vigor visual rating (corn seeds [4]; 5 g/ml/kg Seed, 30DAS): 1 | Average Plant Vigor visual rating (corn seeds [4]; 5 g/ml/kg Seed, 40DAS): 1 | Average Plant Vigor visual rating (corn seeds [4]; 10 g/ml/kg Seed, 10DAS): 2 | Average Plant Vigor visual rating (corn seeds [4]; 10 g/ml/kg Seed, 20DAS): 1 | Average Plant Vigor visual rating (corn seeds [4]; 10 g/ml/kg Seed, 30DAS): 1 | Average Plant Vigor visual rating (corn seeds [4]; 10 g/ml/kg Seed, 40DAS): 1 | growth versus untreated control (in words) (corn seeds [4]; 30 days after sowing): Excellent growth | Average germination % (corn seeds [5]; 5 g/ml/kg Seed, 5DAS): 77.5% | Average germination % (corn seeds [5]; 5 g/ml/kg Seed, 10DAS): 97.5% | Average germination % (corn seeds [5]; 5 g/ml/kg Seed, 15DAS): 97.5% | Average germination % (corn seeds [5]; 10 g/ml/kg Seed, 5DAS): 82.5% | Average germination % (corn seeds [5]; 10 g/ml/kg Seed, 10DAS): 98% | Average germination % (corn seeds [5]; 10 g/ml/kg Seed, 15DAS): 98% | germination of tested corn seeds (in words) (corn seeds [5]; corn, seed treatment vs untreated): significant improvement in germination; also recorded: Enhanced germination % | % Germination (transplanted rice [6]; 5 ml/kg Seed): 86% | No. of germinated seed/sq · m (transplanted rice [6]; 5 ml/kg Seed, 5DAS): 98 seed/sq · m | No. of germinated seed/sq · m (transplanted rice [6]; 5 ml/kg Seed, 10DAS): 102 seed/sq · m | No. of germinated seed/sq · m (transplanted rice [6]; 5 ml/kg Seed, 15DAS): 108 seed/sq · m | % Germination (transplanted rice [6]; 10 ml/kg Seed): 98% | No. of germinated seed/sq · m (transplanted rice [6]; 10 ml/kg Seed, 5DAS): 110 seed/sq · m | No. of germinated seed/sq · m (transplanted rice [6]; 10 ml/kg Seed, 10DAS): 120 seed/sq · m | No. of germinated seed/sq · m (transplanted rice [6]; 10 ml/kg Seed, 15DAS): 128 seed/sq · m | No. of Thrips/Seedling (Thrips [7]; 5 ml/kg Seed, 15DAS): 2.5 Thrips /Seedling | No. of Thrips/Seedling (Thrips [7]; 5 ml/kg Seed, 20DAS): 7.2 Thrips /Seedling | No. of Thrips/Seedling (Thrips [7]; 5 ml/kg Seed, 25DAS): 11.5 Thrips /Seedling | No. of Thrips/Seedling (Thrips [7]; 10 ml/kg Seed, 15DAS): 1.2 Thrips /Seedling | No. of Thrips/Seedling (Thrips [7]; 10 ml/kg Seed, 20DAS): 5.6 Thrips /Seedling | No. of Thrips/Seedling (Thrips [7]; 10 ml/kg Seed, 25DAS): 9.3 Thrips /Seedling | Plant height (cm) (transplanted rice [8]; 5 ml/kg Seed, 15DAS): 51.5 cm | Plant height (cm) (transplanted rice [8]; 5 ml/kg Seed, 20DAS): 72.8 cm | PGE rating (transplanted rice [8]; 5 ml/kg Seed, 30 DAS): 2 | No. of tiller/hill (transplanted rice [8]; 5 ml/kg Seed, 45DAS): 20.8 tiller/hill | PGE rating (transplanted rice [8]; 5 ml/kg Seed, 45DAS): 2 | No. of tiller/hill (transplanted rice [8]; 5 ml/kg Seed, 60DAS): 22.6 tiller/hill | Plant height (cm) (transplanted rice [8]; 10 ml/kg Seed, 15DAS): 58.4 cm | Plant height (cm) (transplanted rice [8]; 10 ml/kg Seed, 20DAS): 78.5 cm | PGE rating (transplanted rice [8]; 10 ml/kg Seed, 30 DAS): 1 | No. of tiller/hill (transplanted rice [8]; 10 ml/kg Seed, 45DAS): 25.6 tiller/hill | PGE rating (transplanted rice [8]; 10 ml/kg Seed, 45DAS): 1 | No. of tiller/hill (transplanted rice [8]; 10 ml/kg Seed, 60DAS): 28.5 tiller/hill | phytotoxicity (corn seeds [9]): no phytotoxicity was observed | % Germination (rice (DSR) [10]; 5 ml/kg Seed): 90% | No. of germinated seed/sq · m (rice (DSR) [10]; 5 ml/kg Seed, 5DAS): 65.3 seed/sq · m | No. of germinated seed/sq · m (rice (DSR) [10]; 5 ml/kg Seed, 10DAS): 69.6 seed/sq · m | No. of germinated seed/sq · m (rice (DSR) [10]; 5 ml/kg Seed, 15 DAS): 70.6 seed/sq · m | % Germination (rice (DSR) [10]; 10 ml/kg Seed): 98% | No. of germinated seed/sq · m (rice (DSR) [10]; 10 ml/kg Seed, 5DAS): 70.6 seed/sq · m | No. of germinated seed/sq · m (rice (DSR) [10]; 10 ml/kg Seed, 10DAS): 73.3 seed/sq · m | No. of germinated seed/sq · m (rice (DSR) [10]; 10 ml/kg Seed, 15 DAS): 78.6 seed/sq · m | plant growth/germination (in words) (rice (DSR) [10]; seed treatment vs untreated): enhanced plant growth/germination
